This note sets out measurements from patent publication US20090137637A1, “Tetrazolyl-Methylene Amino Acid Derivatives” (PFIZER INC., priority 2005, published 2009).

≈ marks a conversion by molar mass, not a printed value.

The nature of data set [1]: Solubility in pH 6.5 aqueous phosphate buffer (Chemical Method 1, PDS solubility). The following applies: thermodynamic from solid; saturated solution in pH 6.5 aqueous phosphate buffer, 5% glyme, UV-visible absorbance. In kind it is physicochemical. The procedure:
Solubility of a test compound of the present invention refers to solubility of the compound in a solvent mixture containing ethylene glycol dimethylether (“glyme”) and pH 6.5 aqueous phosphate buffer. The solubility was determined by measuring ultraviolet-visible absorbance of a saturated solution of the compound and comparing the absorbance value to absorbance values obtained for four standard solutions of the compound having known concentrations plotted on a 4-point ultraviolet-visible standard curve.
First, a saturated solution of the test compound of the present invention was prepared by adding from about 2- to about 5-mg of the compound to a 96-well plate and adding a volume of pH 6.5 aqueous phosphate buffer, sonicating the mixture for about 10 minutes, and then allowing it to equilibrate overnight (typically 12 to 24 hours). The saturated solution was visually inspected to ensure the presence of particles, and then filtered to give a filtrate of the saturated solution. The filtrate of the saturated solution and a blank (pH 6.5 aqueous phosphate buffer containing no test compound) were then transferred into separate wells in a 96-well UV-transparent disposable plate, and a small amount of glyme was added to each well to give 5% glyme concentration per well.
Standard solutions of the test compound were prepared by dissolving a known amount of the test compound in a known volume of 75/25 volume/volume (“v/v”) glyme/water, and diluting this solution into four different concentrations in 96-well plates with additional 75/25 v/v glyme/water. Then, aliquots from each of the four standard solutions were also transferred to the 96-well UV-transparent disposable plate containing pH 6.5 aqueous phosphate buffer until the glyme concentration in each well was 5%.
The prepared 96-well plate was transferred to a 96-well ultraviolet-visible plate reader, and the wells were scanned over wavelengths of from 220 nm to 350 nm with a step size of 2 nm. The ultraviolet-visible data (i.e., data generated at the same wavelength) were electronically exported to a spreadsheet and absorbance data for the filtrate of the saturated solution measured at one wavelength (i.e., the data that had the best linear fit as calculated by the highest regression coefficient, typically 0.98 or higher) and the corresponding standards absorbance data measured at the same wavelength were plotted as a standard absorbance-concentration curve based on the Lambert-Beer law. The solubility (i.e., saturation concentration) was then back calculated by comparing the absorbance of the filtrate of the saturated solution to the absorbance of the standard solutions of known concentrations at the same wavelength.

In data set [2] the target is MMP-13 catalytic domain (MMP-13CD) (Homo sapiens, UniProt P45452). Put plainly: Thiopeptolide hydrolysis inhibition assay, MMP-13 catalytic domain. In kind it is biochemical. The following applies: thiopeptolide substrate, HEPES pH 7.0, 22° C. An excerpt: (§1) In general, the MMP inhibition assays measure the amount by which a test compound reduces the hydrolysis of a thiopeptolide substrate catalyzed by a matrix metalloproteinase enzyme. Such assays are described in detail by Ye et al., in Biochemistry, 1992;31(45):11231-11235, which is incorporated herein by reference.
Some of the particular methods described below use the catalytic domain of the MMP-13 enzyme, namely matrix metalloproteinase-13 catalytic domain (“MMP-13CD”), rather than the corresponding full-length enzyme, MMP-13. It has been shown previously by Ye Qi-Zhuang, Hupe D., and Johnson L. (Current Medicinal Chemistry, 1996;3:407418) that inhibitor activity against a catalytic domain of an MMP is predictive of the inhibitor activity against the respective full-length MMP enzyme.
(§2) Thiopeptolide substrates show virtually no decomposition or hydrolysis at or below neutral pH in the absence of a matrix metalloproteinase enzyme. A typical thiopeptolide substrate commonly utilized for assays is Ac-Pro-Leu-Gly-thioester-Leu-Leu-Gly-OEt. A 100 μL assay mixture will contain 50 mM of N-2-hydroxyethylpiperazine-N′-2-ethanesulfonic acid buffer (“HEPES,” pH 7.0), 10 mM CaCl2, 100 μM thiopeptolide substrate, and 1 mM 5,5′-dithio-bis-(2-nitro-benzoic acid) (DTNB). The thiopeptolide substrate concentration may be varied, for example from 10 to 800 μM to obtain Km and Kcat values. The change in absorbance at 405 nm is monitored on a Thermo Max microplate reader (molecular Devices, Menlo Park, Calif.) at room temperature (22° C.). The calculation of the amount of hydrolysis of the thiopeptolide substrate is based on E412=13600 M^−1 cm^−1 for the DTNB-derived product 3-carboxy-4-nitrothiophenoxide. Assays are carried out with and without matrix metalloproteinase inhibitor compounds, and the amount of hydrolysis is compared for a determination of inhibitory activity of the test compounds.
(§3) Test compounds were evaluated at various concentrations in order to determine their respective IC50 values, the micromolar concentration of compound required to cause a 50% inhibition of catalytic activity of the respective enzyme.

The next data set addresses T1, MMP-1 full-length (Homo sapiens, UniProt P03956).
T1 construct: have been assayed with MMP-1 full-length
T1 sequence (P03956 100-469): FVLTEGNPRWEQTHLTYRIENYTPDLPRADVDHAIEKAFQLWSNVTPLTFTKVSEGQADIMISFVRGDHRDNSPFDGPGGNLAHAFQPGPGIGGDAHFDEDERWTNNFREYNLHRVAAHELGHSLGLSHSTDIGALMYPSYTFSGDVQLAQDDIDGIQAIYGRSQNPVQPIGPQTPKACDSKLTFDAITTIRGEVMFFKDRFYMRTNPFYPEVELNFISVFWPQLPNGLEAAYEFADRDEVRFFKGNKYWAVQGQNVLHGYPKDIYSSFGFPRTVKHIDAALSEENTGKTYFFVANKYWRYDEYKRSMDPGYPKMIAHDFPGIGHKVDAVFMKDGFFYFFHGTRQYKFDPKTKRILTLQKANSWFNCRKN
Put plainly: Thiopeptolide hydrolysis inhibition assay, MMP-1 full-length. In kind it is biochemical. The settings on record: thiopeptolide substrate; read-out: MMP-1FL IC50.
Source text: as §1, §2, §3
(§4) The test described above for the inhibition of MMP-13 may also be adapted and used to determine the ability of the compounds of formula (I) to inhibit the matrix metalloproteases MMP-1, MMP-2, MMP-3, MMP-7, MMP-9, MMP-12, MMP-14, and MMP-17.
(§5) Certain compounds of formula (I) have been assayed with MMP-1 full-length, MMP-2 full-length, MMP-3 catalytic domain, MMP-7 full-length, MMP-8 catalytic domain, MMP-9 full-length, and MMP-12 catalytic domain.

The target of another data set is T2, MMP-2 full-length (Homo sapiens, UniProt P08253).
T2 construct: MMP-2 full-length
T2 sequence (P08253 110-660): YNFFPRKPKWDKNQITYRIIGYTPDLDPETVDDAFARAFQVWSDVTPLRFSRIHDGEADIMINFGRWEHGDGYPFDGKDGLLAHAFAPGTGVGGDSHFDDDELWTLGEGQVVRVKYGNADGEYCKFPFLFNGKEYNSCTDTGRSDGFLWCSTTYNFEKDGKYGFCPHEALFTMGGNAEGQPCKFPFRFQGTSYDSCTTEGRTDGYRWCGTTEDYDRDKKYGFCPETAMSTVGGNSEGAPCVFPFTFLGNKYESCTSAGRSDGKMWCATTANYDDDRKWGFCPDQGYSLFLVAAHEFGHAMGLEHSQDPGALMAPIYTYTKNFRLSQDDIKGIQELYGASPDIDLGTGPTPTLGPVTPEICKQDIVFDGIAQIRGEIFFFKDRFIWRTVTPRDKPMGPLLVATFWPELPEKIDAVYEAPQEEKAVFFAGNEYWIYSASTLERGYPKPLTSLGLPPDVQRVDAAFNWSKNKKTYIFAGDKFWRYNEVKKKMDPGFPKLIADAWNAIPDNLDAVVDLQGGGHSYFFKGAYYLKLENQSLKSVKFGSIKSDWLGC
The data set can be described thus: Thiopeptolide hydrolysis inhibition assay, MMP-2 full-length. In kind it is biochemical. The settings on record: thiopeptolide substrate; read-out: MMP-2FL IC50.
Source text: as §1, §2, §3, §4, §5

The next data set addresses T3, MMP-3 catalytic domain (Homo sapiens, UniProt P08254).
T3 construct: MMP-3 catalytic domain
The data set can be described thus: Thiopeptolide hydrolysis inhibition assay, MMP-3 catalytic domain. In kind it is biochemical. The settings on record: thiopeptolide substrate, MES pH 6.0; read-out: MMP-3CD IC50.
Source text: as §1, §2, §3
The assay buffer used with MMP-3CD was 50 mM N-morpholinoethane sulfonate (“MES”) at pH 6.0 rather than the HEPES buffer at pH 7.0 described above.
The test described above for the inhibition of MMP-13 may also be adapted and used to determine the ability of the compounds of formula (I) to inhibit the matrix metalloproteases MMP-1, MMP-2, MMP-3, MMP-7, MMP-9, MMP-12, MMP-14, and MMP-17. […]

The target of the next data set is T4, MMP-7 full-length (Homo sapiens, UniProt P09237).
T4 construct: MMP-7 full-length
T4 sequence (P09237 95-267): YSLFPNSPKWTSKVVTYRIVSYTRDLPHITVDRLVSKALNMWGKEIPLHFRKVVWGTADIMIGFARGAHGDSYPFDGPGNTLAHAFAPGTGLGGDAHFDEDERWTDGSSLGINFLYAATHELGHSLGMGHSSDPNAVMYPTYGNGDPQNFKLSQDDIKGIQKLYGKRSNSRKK
The data set can be described thus: Thiopeptolide hydrolysis inhibition assay, MMP-7 full-length. In kind it is biochemical. The following applies: thiopeptolide substrate; read-out: MMP-7FL IC50.
Source text: as §1, §2, §3, §4, §5

In a further data set the target is T5, MMP-8 catalytic domain (Homo sapiens, UniProt P22894).
T5 construct: MMP-8 catalytic domain
T5 sequence (P22894 100-262 limits assumed, species assumed): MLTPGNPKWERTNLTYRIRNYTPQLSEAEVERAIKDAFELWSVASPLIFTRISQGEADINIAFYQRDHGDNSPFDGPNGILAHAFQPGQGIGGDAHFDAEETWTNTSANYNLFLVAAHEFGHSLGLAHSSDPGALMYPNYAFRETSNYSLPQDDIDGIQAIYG
The data set can be described thus: Thiopeptolide hydrolysis inhibition assay, MMP-8 catalytic domain. In kind it is biochemical. The settings on record: thiopeptolide substrate; read-out: MMP-8CD IC50.
Source text: as §1, §2, §3, §5

For another data set, the target named is T6, MMP-9 full-length (Homo sapiens, UniProt P14780).
T6 construct: MMP-9 full-length
T6 sequence (P14780 94-707, species assumed): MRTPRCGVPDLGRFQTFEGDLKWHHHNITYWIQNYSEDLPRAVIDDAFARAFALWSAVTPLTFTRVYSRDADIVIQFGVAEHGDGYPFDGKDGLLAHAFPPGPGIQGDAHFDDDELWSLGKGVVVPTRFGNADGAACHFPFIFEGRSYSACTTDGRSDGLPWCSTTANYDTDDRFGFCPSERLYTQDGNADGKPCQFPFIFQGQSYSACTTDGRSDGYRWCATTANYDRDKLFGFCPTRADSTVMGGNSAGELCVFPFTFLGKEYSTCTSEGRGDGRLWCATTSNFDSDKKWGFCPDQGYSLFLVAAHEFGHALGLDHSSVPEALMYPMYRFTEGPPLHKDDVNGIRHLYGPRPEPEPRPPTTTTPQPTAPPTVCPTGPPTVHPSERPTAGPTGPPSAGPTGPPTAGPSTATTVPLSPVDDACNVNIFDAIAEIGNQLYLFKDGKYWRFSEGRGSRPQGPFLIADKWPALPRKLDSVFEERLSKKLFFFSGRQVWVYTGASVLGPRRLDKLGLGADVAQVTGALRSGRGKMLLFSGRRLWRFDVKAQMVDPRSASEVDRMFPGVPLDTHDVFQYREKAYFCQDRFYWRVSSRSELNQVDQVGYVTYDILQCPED
The data set can be described thus: Thiopeptolide hydrolysis inhibition assay, MMP-9 full-length. In kind it is biochemical. The following applies: thiopeptolide substrate; read-out: MMP-9FL IC50.
Source text: as §1, §2, §3, §4, §5

The target in the next data set is T7, MMP-12 catalytic domain (Homo sapiens, UniProt P39900).
T7 construct: MMP-12 catalytic domain
T7 sequence (P39900 106-263 limits assumed, species assumed): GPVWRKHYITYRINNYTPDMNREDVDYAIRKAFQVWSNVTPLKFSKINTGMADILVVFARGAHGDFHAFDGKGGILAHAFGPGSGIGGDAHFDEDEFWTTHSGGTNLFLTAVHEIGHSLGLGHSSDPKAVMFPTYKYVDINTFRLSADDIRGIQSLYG
The data set can be described thus: Thiopeptolide hydrolysis inhibition assay, MMP-12 catalytic domain. In kind it is biochemical. The settings on record: thiopeptolide substrate; read-out: MMP-12CD IC50.
Source text: as §1, §2, §3, §4, §5

T3 sequence (P08254 100-272 limits assumed, species assumed): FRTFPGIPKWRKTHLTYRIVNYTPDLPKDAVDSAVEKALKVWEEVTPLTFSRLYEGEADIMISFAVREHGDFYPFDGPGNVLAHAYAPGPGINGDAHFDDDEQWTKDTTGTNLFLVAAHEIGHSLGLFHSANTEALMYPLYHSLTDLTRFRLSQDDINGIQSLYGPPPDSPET

Usually solubility stands for the dissolved amount per volume that the medium holds. Read a high solubility as a readily soluble substance. For orientation: IC50 means the concentration at which inhibition is half-maximal. The compound `Cc1cc(-c2nnn(CC(=O)NCC(=O)O)n2)cc(C(=O)NCc2ccc(F)cc2)n1` [Example 1, (2-{5-[2-(4-fluoro-benzylcarbamoyl)-6-methyl-pyridin-4-yl]-tetrazol-2-yl}-acetylamino)-acetic acid] displayed a solubility in data set [1] of 580 µg/mL (≈ 1360 µM). Moreover, the IC50 in data set [2] is 0.041 µM; at MMP-1 full-length, above 100 µM; at MMP-2 full-length, above 100 µM; at MMP-3 catalytic domain, above 100 µM; on MMP-7 full-length it was above 100 µM; on MMP-8 catalytic domain it was above 100 µM. Besides, the IC50 on MMP-9 full-length and at MMP-12 catalytic domain was above 100 µM each time.

In data set [1], `Cc1cc(-c2nnn(CC(=O)NCCC(=O)O)n2)cc(C(=O)NCc2ccc(F)cc2)n1` [Example 2, 3-(2-{5-[2-(4-Fluoro-benzylcarbamoyl)-6-methyl-pyridin-4-yl]-tetrazol-2-yl}-acetylamino)-propionic acid] came in with a solubility of 220 µg/mL (≈ 498 µM). For the same compound, the IC50 in [2] is 0.039 µM; at MMP-1 full-length, above 100 µM; on MMP-2 full-length it was 75 µM; at MMP-3 catalytic domain, above 100 µM; on MMP-7 full-length it was above 100 µM; on MMP-8 catalytic domain, above 100 µM. For the same compound, the IC50 at MMP-9 full-length and on MMP-12 catalytic domain was above 100 µM each time.

Consider `Cc1cc(-c2nnn(CC(=O)N3CCCC3C(=O)O)n2)cc(C(=O)NCc2ccc(F)cc2)n1` (stereo not drawn) [Example 3], for which the solubility in [1] came to 1200 µg/mL (≈ 2570 µM). The compound further returned an IC50 in data set [2] of 1.5 µM.

`O=C(O)C1CCCN(CCCn2nnc(-c3cccc(C#CCc4ccc(F)cc4)c3)n2)C1` (stereo not drawn) [Example 4]: the IC50 was 5.2 µM in data set [2]; above 100 µM at MMP-1 full-length; above 100 µM on MMP-2 full-length; above 100 µM at MMP-3 catalytic domain; above 100 µM at MMP-7 full-length; above 100 µM at MMP-8 catalytic domain. The IC50 on MMP-9 full-length and at MMP-12 catalytic domain was above 100 µM in each case.

`Cc1cc(-c2nnn(CC(=O)O)n2)cc(C(=O)NCc2ccc(F)cc2)n1` [Example I2, {5-[2-(4-fluoro-benzylcarbamoyl)-6-methyl-pyridin-4-yl]-tetrazol-2-yl}-acetic acid] showed a solubility in data set [1] of 880 µg/mL (≈ 2380 µM). For the same compound, it took 4.5 µM to reach half-maximal inhibition in [2] (IC50).
